The values that follow come from PMC9673926, “Nucleotide binding as an allosteric regulatory mechanism for Akkermansia muciniphila β-N-acetylhexosaminidase Am2136” (Gut Microbes, 2022).

Data set [1] has as its target T1, Am2136 WT (Akkermansia muciniphila, UniProt B2UPR7).
T1 construct: The coding region (residue Q20-L756) of Am2136 without signal peptide was based on UniProt; 6XHis (N); made in house; host or cells: E. coli BL21 (DE3)
Kind of data set: Nucleotide binding affinity by intrinsic fluorescence. Conditions: WT dialyzed. As to the method: The nucleotide binding ability was determined on Fluorescence Spectrometer Duetta (HORIBA) by measuring the change of peak intensity. The fluorescence was excited at 286 nm and emitted at 336 nm. And the measurement was processed under 400 V voltage with 2.5 nm excitation slit and 5 nm emission slit. […] The sample was incubated at 4°C for 5 min before testing.

Data set [2] has as its target T2, Am2136 WT dialyzed (Akkermansia muciniphila, UniProt B2UPR7).
T2 construct: The coding region (residue Q20-L756) of Am2136 without signal peptide was based on UniProt; 6XHis (N); made in house; host or cells: E. coli BL21 (DE3)
Kind of data set: Metal ion effect on enzyme hydrolysis activity. Format: biochemical. The conditions noted are these: for Vmax / kcat/Km: WT dialyzed + 2 mM metal ion, substrate pNP-β-GlcNAc; for effect of metal ion on Am2136 catalytic activity: 2 mM metal ion. How it is done: The purified protein was added with the final concentration of 5 mM EDTA and incubated on ice for 20 min. Then the protein was dialyzed with the buffer solution (2 mM EDTA, 25 mM Tris, 150 mM NaCl, 5% Glycerol, pH 8.0) at 4°C for 4 h at a volume ratio of 1:350. After that, the protein was dialyzed with the EDTA-free buffer for 4 h and repeated twice.
The dialyzed protein was incubated with other metal ions on ice for 5 min. The 50 μL reaction mixture contains 2 μM protein, 0.125–4 mM p-nitrophenyl (pNP)-β-GlcNAc, 2 mM metal ions (MgCl2, CaCl2, CuCl2, ZnCl2, CoCl2), 25 mM Tris pH 8.0 and 150 mM NaCl.

The target of data set [3] is T3, Am2136 (Akkermansia muciniphila, UniProt B2UPR7).
T3 construct: The coding region (residue Q20-L756) of Am2136 without signal peptide was based on UniProt; 6XHis (N); made in house; host or cells: E. coli BL21 (DE3)
Kind of data set: Oligosaccharide hydrolysis, released GlcNAc by HPLC-QqQ-MS. Format: biochemical. Conditions: 1.2 mM substrate, 4 μM Am2136, 37°C, 240 min. How it is done: The 30 μL reaction mixture contains 1.2 mM oligosaccharides (Sigma), 4 μM proteins, 150 mM NH4Ac pH 8.0. The qualitative and quantitative analyses were performed by high-performance liquid chromatography-tandem triple quadrupole mass spectrometry (HPLC-QqQ-MS) (Agilent 1260 HPLC system and 6460 QqQ system, Agilent Technologies, USA). The separation was performed on a Chromplus C18 column (4.6 × 250 mm, 5 μm) at 25°C. The samples were isocratic eluted with 0.1% formic acid in water and acetonitrile (80:20, v/v) at a flow rate of 0.5 mL/min with an injection volume of 5 μL. The mass spectrometer was operated in the electron spray ionization mode with drying gas temperature of 300°C, N2 gas flow at 11 L/min, nebulizer pressure of 15 psi, and capillary voltage of 4000 V.
Qualitative analysis was carried out by MS2 full-scan mode, while quantitative analysis was performed by multiple reaction monitoring (MRM) in positive ionization mode. Amygdalin (IS) was used as internal standard, and the sample was prepared by adding 20 μL internal standard (116.96 μM) and 170 μL water to 10 μL reaction mixture. The ion transitions were chosen as m/z 222.0→203.9 for GlcNAc and m/z 458.1→296.0 for IS. The fragmentor voltage values of GlcNAc and IS were set to 70 and 130 V, respectively. The collision energies of GlcNAc and IS were set to 1 and 10 eV, respectively. The signal acquisition and peak integration were performed using the MassHunter Qualitative Analysis Software (Agilent, USA). The concentration of GlcNAc in each sample was determined by using the established calibration curve (y = 0.768x + 2.4873) made from the standard compound.

Substrate in data set [4]: CC(=O)N[C@H]1[C@H](Oc2ccc([N+](=O)[O-])cc2)O[C@H](CO)[C@@H](O)[C@@H]1O
Kind of data set: purified protein, by the assay type. Conditions: pH 8.0; 37.0 °C.

T3 sequence (B2UPR7 20-756): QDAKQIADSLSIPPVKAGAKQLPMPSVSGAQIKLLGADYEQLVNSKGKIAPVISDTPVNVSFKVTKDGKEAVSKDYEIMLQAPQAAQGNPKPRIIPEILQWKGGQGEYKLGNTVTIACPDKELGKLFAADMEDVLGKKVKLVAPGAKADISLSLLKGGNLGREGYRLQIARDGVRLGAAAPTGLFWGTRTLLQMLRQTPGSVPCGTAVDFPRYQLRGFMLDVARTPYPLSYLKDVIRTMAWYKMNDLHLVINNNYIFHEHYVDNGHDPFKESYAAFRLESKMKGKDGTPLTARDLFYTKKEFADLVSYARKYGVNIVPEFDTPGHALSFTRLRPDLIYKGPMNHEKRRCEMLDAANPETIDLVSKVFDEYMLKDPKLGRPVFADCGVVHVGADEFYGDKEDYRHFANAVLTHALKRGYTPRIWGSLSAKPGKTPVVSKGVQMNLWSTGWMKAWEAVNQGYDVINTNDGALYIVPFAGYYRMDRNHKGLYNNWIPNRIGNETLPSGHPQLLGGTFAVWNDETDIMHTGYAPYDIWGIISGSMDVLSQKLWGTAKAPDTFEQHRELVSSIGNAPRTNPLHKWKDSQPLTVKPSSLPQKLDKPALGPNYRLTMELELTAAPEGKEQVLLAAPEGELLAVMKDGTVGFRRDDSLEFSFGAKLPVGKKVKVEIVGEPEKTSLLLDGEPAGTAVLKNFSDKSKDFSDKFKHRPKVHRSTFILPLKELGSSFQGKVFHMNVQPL
T2 sequence (B2UPR7 20-756): as above
T1 sequence (B2UPR7 20-756): as above

`[Cl-].[Cl-].[Mg+2]` [Mg^2+, MgCl2]: the “effect of ion on GDP binding to Am2136” value in data set [1] is listed as “did not exhibit obvious behavioral effect on GDP binding”. For the same molecule, in data set [2], the maximal velocity (Vmax) was 435 ± 9 µmol/min and the specificity constant (kcat/Km) is 151000 ± 3000 M⁻¹ s⁻¹.
On to `[Cl-].[Cl-].[Zn+2]` [Zn^2+, ZnCl2], for which the “effect of metal ion on Am2136 catalytic activity” value (“effect of metal ion” for short) in data set [2] was “significant inhibitory effects”.
`[Cl-].[Cl-].[Co+2]` [Co^2+, CoCl2]: in data set [2], the “effect of metal ion” value is “significant inhibitory effects”.
Consider `CC(=O)N[C@H]1[C@H](OC[C@H]2O[C@@H](O[C@H]3[C@H](O)[C@@H](O)C(O)O[C@@H]3CO)[C@H](O)[C@@H](O)[C@H]2O)O[C@H](CO)[C@@H](O)[C@@H]1O` (stereo partly drawn) [GlcNAc-(β1,6)Gal-(β1,4)Glc], for which the GlcNAc released in data set [3] (with 1 mM GDP) worked out at 712.55 µM; in data set [3] (without GDP) it was 549 µM.
Consider `COC1O[C@H](CO)[C@H](O)[C@H](O[C@@H]2O[C@H](CO)[C@@H](O)[C@H](O)[C@H]2NC(C)=O)[C@H]1O` (stereo partly drawn) [Methyl GlcNAc-(β1,3)Gal], for which the GlcNAc released in data set [3] (with 1 mM GDP) was determined as 610.53 µM; in data set [3] (without GDP), 448 µM.
Consider `[Cl][Cu][Cl]` [Cu^2+, CuCl2], for which the “effect of metal ion” value in data set [2] is on record as “significant inhibitory effects”.
Regarding `CC(=O)N[C@H]1[C@@H](Oc2ccc([N+](=O)[O-])cc2)O[C@H](CO[C@@H]2O[C@H](CO)[C@@H](O)[C@H](O)[C@H]2NC(C)=O)[C@H](O)[C@@H]1O` [GlcNAc-(β1,6)GalNAc-α-pNP], the GlcNAc released was found to be 451.25 µM in data set [3] (with 1 mM GDP) and 308 µM in data set [3] (without GDP).
Regarding `CC(=O)N[C@H]1[C@H](O[C@@H]2C(O)O[C@H](CO)[C@@H](O)[C@@H]2O)O[C@H](CO)[C@@H](O)[C@@H]1O` (stereo partly drawn) [GlcNAc-(β1,2)Man], the figures for the GlcNAc released in data set [3] (with 1 mM GDP) and in data set [3] (without GDP) were 851.33 µM and 671 µM, respectively.
In the case of `[Ca+2].[Cl-].[Cl-]` [Ca^2+, CaCl2], in data set [1], the “effect of ion on GDP binding to Am2136” value was “did not exhibit obvious behavioral effect on GDP binding”. Moreover, in data set [2], the Vmax came to 447 ± 14 µmol/min and the catalytic efficiency (kcat/Km) worked out at 128000 ± 2000 M⁻¹ s⁻¹.

B1: R256A (Akkermansia muciniphila ATCC BAA-835; R256A) (protein)
chain: QDAKQIADSLSIPPVKAGAKQLPMPSVSGAQIKLLGADYEQLVNSKGKIAPVISDTPVNVSFKVTKDGKEAVSKDYEIMLQAPQAAQGNPKPRIIPEILQWKGGQGEYKLGNTVTIACPDKELGKLFAADMEDVLGKKVKLVAPGAKADISLSLLKGGNLGREGYRLQIARDGVRLGAAAPTGLFWGTRTLLQMLRQTPGSVPCGTAVDFPRYQLRGFMLDVARTPYPLSYLKDVIATMAWYKMNDLHLVINNNYIFHEHYVDNGHDPFKESYAAFRLESKMKGKDGTPLTARDLFYTKKEFADLVSYARKYGVNIVPEFDTPGHALSFTRLRPDLIYKGPMNHEKRRCEMLDAANPETIDLVSKVFDEYMLKDPKLGRPVFADCGVVHVGADEFYGDKEDYRHFANAVLTHALKRGYTPRIWGSLSAKPGKTPVVSKGVQMNLWSTGWMKAWEAVNQGYDVINTNDGALYIVPFAGYYRMDRNHKGLYNNWIPNRIGNETLPSGHPQLLGGTFAVWNDETDIMHTGYAPYDIWGIISGSMDVLSQKLWGTAKAPDTFEQHRELVSSIGNAPRTNPLHKWKDSQPLTVKPSSLPQKLDKPALGPNYRLTMELELTAAPEGKEQVLLAAPEGELLAVMKDGTVGFRRDDSLEFSFGAKLPVGKKVKVEIVGEPEKTSLLLDGEPAGTAVLKNFSDKSKDFSDKFKHRPKVHRSTFILPLKELGSSFQGKVFHMNVQPL
For the molecule B1, in data set [4], the Michaelis constant (Km) was found to be 1490 ± 60 µM.

B2: P595A+H597A (Akkermansia muciniphila ATCC BAA-835; H597A/P595A) (protein)
chain: QDAKQIADSLSIPPVKAGAKQLPMPSVSGAQIKLLGADYEQLVNSKGKIAPVISDTPVNVSFKVTKDGKEAVSKDYEIMLQAPQAAQGNPKPRIIPEILQWKGGQGEYKLGNTVTIACPDKELGKLFAADMEDVLGKKVKLVAPGAKADISLSLLKGGNLGREGYRLQIARDGVRLGAAAPTGLFWGTRTLLQMLRQTPGSVPCGTAVDFPRYQLRGFMLDVARTPYPLSYLKDVIRTMAWYKMNDLHLVINNNYIFHEHYVDNGHDPFKESYAAFRLESKMKGKDGTPLTARDLFYTKKEFADLVSYARKYGVNIVPEFDTPGHALSFTRLRPDLIYKGPMNHEKRRCEMLDAANPETIDLVSKVFDEYMLKDPKLGRPVFADCGVVHVGADEFYGDKEDYRHFANAVLTHALKRGYTPRIWGSLSAKPGKTPVVSKGVQMNLWSTGWMKAWEAVNQGYDVINTNDGALYIVPFAGYYRMDRNHKGLYNNWIPNRIGNETLPSGHPQLLGGTFAVWNDETDIMHTGYAPYDIWGIISGSMDVLSQKLWGTAKAPDTFEQHRELVSSIGNAPRTNALAKWKDSQPLTVKPSSLPQKLDKPALGPNYRLTMELELTAAPEGKEQVLLAAPEGELLAVMKDGTVGFRRDDSLEFSFGAKLPVGKKVKVEIVGEPEKTSLLLDGEPAGTAVLKNFSDKSKDFSDKFKHRPKVHRSTFILPLKELGSSFQGKVFHMNVQPL
Turning to B2, in data set [4], the Km is 1580 ± 70 µM.

B3: R592A (Akkermansia muciniphila ATCC BAA-835; R592A) (protein)
chain: QDAKQIADSLSIPPVKAGAKQLPMPSVSGAQIKLLGADYEQLVNSKGKIAPVISDTPVNVSFKVTKDGKEAVSKDYEIMLQAPQAAQGNPKPRIIPEILQWKGGQGEYKLGNTVTIACPDKELGKLFAADMEDVLGKKVKLVAPGAKADISLSLLKGGNLGREGYRLQIARDGVRLGAAAPTGLFWGTRTLLQMLRQTPGSVPCGTAVDFPRYQLRGFMLDVARTPYPLSYLKDVIRTMAWYKMNDLHLVINNNYIFHEHYVDNGHDPFKESYAAFRLESKMKGKDGTPLTARDLFYTKKEFADLVSYARKYGVNIVPEFDTPGHALSFTRLRPDLIYKGPMNHEKRRCEMLDAANPETIDLVSKVFDEYMLKDPKLGRPVFADCGVVHVGADEFYGDKEDYRHFANAVLTHALKRGYTPRIWGSLSAKPGKTPVVSKGVQMNLWSTGWMKAWEAVNQGYDVINTNDGALYIVPFAGYYRMDRNHKGLYNNWIPNRIGNETLPSGHPQLLGGTFAVWNDETDIMHTGYAPYDIWGIISGSMDVLSQKLWGTAKAPDTFEQHRELVSSIGNAPATNPLHKWKDSQPLTVKPSSLPQKLDKPALGPNYRLTMELELTAAPEGKEQVLLAAPEGELLAVMKDGTVGFRRDDSLEFSFGAKLPVGKKVKVEIVGEPEKTSLLLDGEPAGTAVLKNFSDKSKDFSDKFKHRPKVHRSTFILPLKELGSSFQGKVFHMNVQPL
For B3, the Michaelis-Menten constant (Km) in data set [4] came to 1480 ± 60 µM.

B4: Y327F+Y331F (Akkermansia muciniphila ATCC BAA-835; Y327F/Y331F) (protein)
chain: QDAKQIADSLSIPPVKAGAKQLPMPSVSGAQIKLLGADYEQLVNSKGKIAPVISDTPVNVSFKVTKDGKEAVSKDYEIMLQAPQAAQGNPKPRIIPEILQWKGGQGEYKLGNTVTIACPDKELGKLFAADMEDVLGKKVKLVAPGAKADISLSLLKGGNLGREGYRLQIARDGVRLGAAAPTGLFWGTRTLLQMLRQTPGSVPCGTAVDFPRYQLRGFMLDVARTPYPLSYLKDVIRTMAWYKMNDLHLVINNNYIFHEHYVDNGHDPFKESYAAFRLESKMKGKDGTPLTARDLFYTKKEFADLVSFARKFGVNIVPEFDTPGHALSFTRLRPDLIYKGPMNHEKRRCEMLDAANPETIDLVSKVFDEYMLKDPKLGRPVFADCGVVHVGADEFYGDKEDYRHFANAVLTHALKRGYTPRIWGSLSAKPGKTPVVSKGVQMNLWSTGWMKAWEAVNQGYDVINTNDGALYIVPFAGYYRMDRNHKGLYNNWIPNRIGNETLPSGHPQLLGGTFAVWNDETDIMHTGYAPYDIWGIISGSMDVLSQKLWGTAKAPDTFEQHRELVSSIGNAPRTNPLHKWKDSQPLTVKPSSLPQKLDKPALGPNYRLTMELELTAAPEGKEQVLLAAPEGELLAVMKDGTVGFRRDDSLEFSFGAKLPVGKKVKVEIVGEPEKTSLLLDGEPAGTAVLKNFSDKSKDFSDKFKHRPKVHRSTFILPLKELGSSFQGKVFHMNVQPL
Turning to B4, the Km in data set [4] amounted to 1420 ± 60 µM.
